Reference: patent US20060009478A1, “Methods for the treatment of back pain” (priority 2003, published 2006)
Several values for one entry are separate records, joined by “and”; a condition that tells them apart may be missing. Identical values can stand only once.

Columns and labels:
IL4 = experiment: Plasma cytokine concentration, Pointilliste Human Th1/Th2 Cytokine Canvas; assay type: in vivo; conditions: OXY = oxycodone QID, BID/QID = combination drug of oxycodone and naltrexone BID/QID
Experimental: Plasma samples from selected subjects in the clinical study were used to assay for the presence and concentration of selected cytokines.
Plasma samples were analyzed using a commercial cytokine assay from Pointilliste (www.pointilliste.com) to quantify the concentrations of IL2, IL4, IL5, IL6, IL10, IL13, GM-CSF, interferon and TNFα. Plasma samples were separately analyzed for IL1αand IL1β, which were quantitated using a conventional cytokine assay by Pointilliste. The cytokine assay for the quantitation of IL2, IL4, IL5, IL6, IL10, IL13, GM-CSF, interferon and TNFα employed, Pointilliste's Human Th1/Th2 Cytokine Canvas product which contains binding sites for each of these nine cytokines.
Two measurements (duplicates) for each cytokine were possible for each plasma sample applied to a canvas, since the canvas has two binding sites for each cytokine.
Fifty-seven frozen human plasma samples containing EDTA as an anticoagulant were thawed on ice and transferred to a sterile 96-deep well polypropylene plate. The plate was centrifuged briefly at 4° C. to clarify the plasma. Aliquots of clarified plasma were removed for cytokine analysis, and the remaining samples in the 96-deep well polypropylene plate were stored at −80° C.
The aliquots of clarified plasma were transferred to sterile non-protein binding 96-well polypropylene plates to enable parallel processing of the samples. Two different 96 well plates were used, and each received a subsample of the aliquots at different dilutions. Two dilutions (1 in 1 and 1 in 10) of each sample were assayed on two separate human Th1/Th2 cytokine canvases. In order to quantify the cytokine concentrations, standard curves were generated for each dilution. A mixture of 9 cytokines was run on each of the canvases and used to calculate a standard curve, which was used to determine the amount of each cytokine in the samples. The standard curves were plotted with the signal intensity as a function of the cytokine concentration in ng/ml. A CCD camera was used with Pointilliste's Canvas Analysis Tools software to generate data corresponding to cytokine concentrations.

[1] = test system: patients with moderate to severe chronic pain due to osteoarthritis of the hip or knee; experiment: Quality of analgesia, 3-week osteoarthritis study; assay type: in vivo, human
Experimental: Quality of Analgesia was assessed weekly at clinic visits. The patient was prompted with the question, “How would you rate the quality of your pain relief at this time?”, and responses were selected from poor, fair, good, very good, and excellent.
(§1) The global assessment, quality of analgesia, and pain control, recorded at the end of each week, were summarized in terms of category proportions.
For secondary analysis of data, pain intensity changes, SF-12, and WOMAC were analyzed with the ANOVA methods as described above. Within treatment arms, weeks were compared in pairwise fashion using paired-sample methods. The global assessments, quality of analgesia ratings, and pain control was analyzed at each week, globally and in pairwise fashion, using the Cocharan-Mantel-Haenszel row mean scores (CMH-RMS) test, using equally spaced scores. An “observed data” analysis, without any data imputation, was conducted on pain intensity changes, global assessments, quality of analgesia ratings, pain control, SF-12, and WOMAC using the same analysis methods described previously.

[2] = test system: patients with moderate to severe chronic pain due to osteoarthritis of the hip or knee; experiment: Pain control, 3-week osteoarthritis study; assay type: in vivo, human; conditions: ITT (N = 102 per active group), LOCF
Experimental: Pain Control was also assessed weekly at clinic visits. The patient was prompted with the question, “During the past week, how would you describe your pain control during the course of each day?” Responses were selected from: Pain was controlled for (1) a few hours or less each day; (2) several hours each day; (3) most of each day; and (4) throughout each day.
as §1
For secondary analysis of data, pain intensity changes, SF-12, and WOMAC were analyzed with the ANOVA methods as described above. Within treatment arms, weeks were compared in pairwise fashion using paired-sample methods. The global assessments, quality of analgesia ratings, and pain control was analyzed at each week, globally and in pairwise fashion, using the Cocharan-Mantel-Haenszel row mean scores (CMH-RMS) test, using equally spaced scores.

[3] = ITT (N = 102 per active group), LOCF

COc1ccc2c3c1O[C@H]1C(=O)CC[C@@]4(O)[C@@H](C2)N(C)CC[C@]314 [OXY QID, oxycodone]
IL4 cytokine concentration (IL4; individual measurements of plasma samples, listed as OXY): 0.0907 ng/mL and 0.09132 ng/mL and 0.1379 ng/mL and 0.1411 ng/mL and 0.2369 ng/mL and 0.2651 ng/mL and 0.4655 ng/mL and 0.4725 ng/mL | Mean of IL4 concentrations (IL4; treatment group mean, random sample of subjects): 0.238 ng/mL | Quality of analgesia Week 1: EXCELLENT (4), number (%) of patients [1, 3]: 3 (2.9%) | Quality of analgesia Week 1: FAIR (1), number (%) of patients [1, 3]: 31 (30.4%) | Quality of analgesia Week 1: GOOD (2), number (%) of patients [1, 3]: 18 (37.3%) | Quality of analgesia Week 1: POOR (0), number (%) of patients [1, 3]: 18 (17.6%) | Quality of analgesia Week 1: VERY GOOD (3), number (%) of patients [1, 3]: 8 (7.8%) | Quality of analgesia Week 2: EXCELLENT (4), number (%) of patients [1, 3]: 4 (3.9%) | Quality of analgesia Week 2: FAIR (1), number (%) of patients [1, 3]: 29 (28.4%) | Quality of analgesia Week 2: GOOD (2), number (%) of patients [1, 3]: 30 (29.4%) | Quality of analgesia Week 2: POOR (0), number (%) of patients [1, 3]: 19 (18.6%) | Quality of analgesia Week 2: VERY GOOD (3), number (%) of patients [1, 3]: 16 (15.7%) | Quality of analgesia Week 3: EXCELLENT (4), number (%) of patients [1, 3]: 5 (4.9%) | Quality of analgesia Week 3: FAIR (1), number (%) of patients [1, 3]: 23 (22.5%) | Quality of analgesia Week 3: GOOD (2), number (%) of patients [1, 3]: 32 (31.4%) | Quality of analgesia Week 3: POOR (0), number (%) of patients [1, 3]: 23 (22.5%) | Quality of analgesia Week 3: VERY GOOD (3), number (%) of patients [1, 3]: 15 (14.7%) | Patients reporting a quality of analgesia assessment of very good or excellent at Week 3 ([1]; Week 3): 19.6% | Pain control Week 1: PAIN CONTROLLED A FEW HRS/LESS EACH DAY (1), number (%) of patients [2]: 42 (41.2%) | Pain control Week 1: PAIN CONTROLLED MOST OF EACH DAY (3), number (%) of patients [2]: 17 (16.7%) | Pain control Week 1: PAIN CONTROLLED SEVERAL HRS EACH DAY (2), number (%) of patients [2]: 29 (28.4%) | Pain control Week 1: PAIN CONTROLLED THROUGHOUT EACH DAY (4), number (%) of patients [2]: 10 (9.8%) | Pain control Week 2: PAIN CONTROLLED A FEW HRS/LESS EACH DAY (1), number (%) of patients [2]: 36 (35.3%) | Pain control Week 2: PAIN CONTROLLED MOST OF EACH DAY (3), number (%) of patients [2]: 26 (25.5%) | Pain control Week 2: PAIN CONTROLLED SEVERAL HRS EACH DAY (2), number (%) of patients [2]: 26 (25.5%) | Pain control Week 2: PAIN CONTROLLED THROUGHOUT EACH DAY (4), number (%) of patients [2]: 10 (9.8%) | Pain control Week 3: PAIN CONTROLLED A FEW HRS/LESS EACH DAY (1), number (%) of patients [2]: 35 (34.3%) | Pain control Week 3: PAIN CONTROLLED MOST OF EACH DAY (3), number (%) of patients [2]: 27 (26.5%) | Pain control Week 3: PAIN CONTROLLED THROUGHOUT EACH DAY (4), number (%) of patients [2]: 8 (7.8%)
